{
  "source": "patent US20250345318A1",
  "about": "“COMPOUND AND USE THEREOF IN PREVENTING OR TREATING RADIATION DAMAGE” (SIMCERE PHARMACEUTICAL CO., LTD., priority 2022, published 2025)",
  "key": {"C57BL/6 male mice": {"test_system": "C57BL/6 male mice", "experiment": "Dose-response of protection against total body X-ray irradiation: body weight, small intestine villus length (Example 5)", "type": "in vivo", "description": "C57BL/6 male mice (24.8±1.6 g in body weight) aged 10 weeks were divided into 6 groups: a vehicle control group, a JAC4 (200 mg/kg) treatment group, a vehicle control+radiation group, and JAC4 intervention (50 mg/kg, 100 mg/kg, and 200 mg/kg)+radiation groups, with 12 mice in each group. JAC4 or an equal volume of vehicle (polyethylene glycol:ethanol:physiological saline=47.5:7.5:50, v/v/v) was orally administered to the mice once daily for 7 consecutive days. After that, the mice in the radiation groups were subjected to total body X-ray irradiation (6 Gy). The JAC4 or vehicle treatment was continued for 3 days.\nThe body weights of the mice before and after the total body X-ray irradiation were measured, and the body weight curves are shown in FIG. 8.\nHE staining was performed on the small intestine tissues of mice subjected to total body X-ray irradiation. The length of the small intestine villi in all groups was measured and the results were statistically analyzed. The specific procedures are as follows: 3 mice were randomly selected from each group for statistical analysis of their small intestine tissue HE staining images, and for each mouse, 6 fields of view were randomly selected for inspection (** p<0.01, *** p<0.001)."}, "JWA^IEC-ko mice": {"test_system": "JWA^IEC-ko mice", "experiment": "X-ray-induced intestinal injury in intestinal epithelial JWA-knockout mice (Example 12)", "type": "in vivo", "details": "JAC4 10 mg/kg daily, ABI 10 Gy", "description": "The Model Animal Research Institute of Nanjing University was commissioned to conduct the construction of JWA^flox/+ A129 mice and embryo cryopreservation, preservation, and thawing. These mice were bred with wild-type C57/BL6 mice for over six generations to give mice of C57/BL6 background. Villin-cre mice, provided by Shanghai Model Organisms Center, Inc., were C57/BL6 mice. The JWA-knockout mice (JWA^ko) and their littermate control (JWA^wt) counterparts were derived from an in-house conservation breed. The JWA^flox/flox mice were bred from the JWA^flox/+ mice. The intestinal epithelial JWA-knockout mice (JWA^IEC-ko) and control group (JWA^IEC-wt) were obtained through breeding JWA^flex/flex mice with Villin-cre mice.\nThe off-target model was established using JWA^IEC-ko mice and their JWA^IEC-wt littermates (8 weeks old), and the mice receiving radiation were divided into 4 groups: (1) a JWA^IEC-wt mice+vehicle group (n=5); (2) a JWA^IEC-wt mice+JAC4 group (n=5); (3) a JWA^IEC-ko mice+vehicle group (n=6); (4) a JWA^IEC-ko mice+JAC4 group (n=5). All mice were subjected to abdominal irradiation at 10 Gy. 7 days before radiation, 10 mg/kg JAC4 or an equal volume of vehicle (polyethylene glycol:ethanol:physiological saline=40:7.5:52.5, v/v/v) was administered intragastrically daily until the end of modeling. The blank control group (wild type, n=6) was not irradiated, and the modeling was terminated on day 4 after radiation.\nTo verify whether the protective effect of JAC4 on X-ray radiation-induced intestinal damage in mice is dependent on the expression of JWA, the present disclosure verified the targeting effect of JAC4 using JWA^IEC-ko mice.\nJWA^IEC-ko and JWA^IEC-wt mice were treated daily with JAC4 (10 mg/kg) or an equal volume of vehicle (polyethylene glycol:ethanol:physiological saline=47.5:7.5:50, v/v/v), respectively, from 7 days before the ABI (10 Gy) exposure to 4 days after the exposure. […] Meanwhile, the contents of TNF-α and IL-1β were consistent with the results of FD4. […] As shown in panels E and F, ABI increased the activity of GSH-Px (530.8±207.8 vs. 406.2±197.9 U/mL) and decreased the activity of CAT (89.4 f 0.4 vs. 68.7±14.2 U/mL). JAC4 further enhanced the antioxidant enzymes in JWA^IEC-wt mice (815.1±203.9 vs. 530.8±207.8 U/mL and 85.9±8.2 vs. 68.7±14.2 U/mL; P<0.05, P<0.05). […] Intestinal tissues were isolated, and the expression of apoptotic molecules was detected by Western blot (FIG. 16J). In wild-type mice, compared with the control group, X-rays increased the expression of Bax and cleaved PARP1 in the small intestine."}, "BEAS-2B cells": {"test_system": "BEAS-2B cells", "experiment": "CCK-8 cell viability, JAC4 with X-ray, BEAS-2B (Example 22)", "type": "cell-based, human", "details": "10 μM JAC4 24 h + 4 Gy X-ray 24 h", "description": "SPCA-1 and BEAS-2B cells were cultured in a 90%/DMEM+10% FBS+100 μg/mL ciprofloxacin culture medium. The SPCA-1 and BEAS-2B cells were pretreated for 24 h with 10 μM JAC4 and subjected to 4 Gy X-ray treatment for 24 h and then CCK-8 detection, so as to explore the influence of JAC4 in combination with X-ray on the viability of SPCA-1 and BEAS-2B cells. The specific procedures are as follows:\n1. SPCA-1 and BEAS-2B cells in the exponential growth phase were plated in a 96-well plate at 5,000 cells/well in triplicate for each group.\n2. After 24 h of culture, when the cells fully adhered to the container wall and returned to normal morphology, the cells were treated with X-ray radiation of 0, 4, 8, 12, 16, or 20 Gy or JAC4 at 0, 1, 5, 10, 20, or 50 μM.\n3. After 24 h of treatment, CCK-8 reagent was added at 10 μL/well, and the cells were incubated in a cell incubator for 1 h. The absorbance (OD) at 450 nm was measured.\n4. Cell viability equation: cell viability (%)=[…]×100%/(ODcontrol−ODblank)."}},
  "data": [
    {"compound": "c1ccc(CSc2nnc(C3COc4ccccc4O3)o2)nc1", "note": "(stereo not drawn) [JAC4]", "values": [
      {"measurement": "body weight loss after radiation", "setting": "C57BL/6 male mice; JAC4 50, 100, 200 mg/kg oral + TBI 6 Gy vs vehicle+radiation", "value": "slower body weight loss"},
      {"measurement": "small intestine villus length", "setting": "C57BL/6 male mice; day 3 after TBI 6 Gy, JAC4 50 mg/kg oral", "value": "249.42±27.19", "unit": "μm"},
      {"measurement": "small intestine villus length", "setting": "C57BL/6 male mice; day 3 after TBI 6 Gy, JAC4 100 mg/kg oral", "value": "244.78±40.74", "unit": "μm"},
      {"measurement": "small intestine villus length", "setting": "C57BL/6 male mice; day 3 after TBI 6 Gy, JAC4 200 mg/kg oral", "value": "212.43±27.99", "unit": "μm"},
      {"measurement": "small intestine villus length", "setting": "C57BL/6 male mice; day 7 after TBI 6 Gy, JAC4 50 mg/kg oral", "value": "235.57±24.34", "unit": "μm"},
      {"measurement": "small intestine villus length", "setting": "C57BL/6 male mice; day 7 after TBI 6 Gy, JAC4 100 mg/kg oral", "value": "254.95±28.91", "unit": "μm"},
      {"measurement": "small intestine villus length", "setting": "C57BL/6 male mice; day 7 after TBI 6 Gy, JAC4 200 mg/kg oral", "value": "259.17±17.56", "unit": "μm"},
      {"measurement": "small intestine villus length", "setting": "C57BL/6 male mice; non-radiation, JAC4 200 mg/kg oral", "value": "306.78±14.64", "unit": "μm"},
      {"measurement": "enhancement of antioxidant enzymes (GSH-Px, CAT)", "setting": "JWA^IEC-ko mice", "value": "not confirmed"},
      {"measurement": "plasma FD4 content", "setting": "JWA^IEC-ko mice", "value": "9192.8 ± 5573.2", "unit": "ng/mL"},
      {"measurement": "plasma IL-1β", "setting": "JWA^IEC-ko mice", "value": "65.6 ± 3.3", "unit": "ng/mL"},
      {"measurement": "plasma TNF-α", "setting": "JWA^IEC-ko mice", "value": "769.8 ± 112.3", "unit": "ng/mL"},
      {"measurement": "crypt height", "setting": "JWA^IEC-ko mice; day 4", "value": "53.0±3.0", "unit": "μm"},
      {"measurement": "intestinal villus length", "setting": "JWA^IEC-ko mice; day 4", "value": "150.6±8.4", "unit": "μm"},
      {"measurement": "BEAS-2B cell viability (CCK-8)", "setting": "BEAS-2B cells", "value": "alleviated the inhibitory effect of X-ray"}
    ]}
  ]
}
